Reference: US20230131899A1, “INHIBITORS OF MICROBIALLY INDUCED AMYLOID” (Axial Therapeutics, Inc., priority 2020, published 2023)
Read-outs that look alike come from different tables or passages of the source.

Molecular target: T1, E. coli CsgA (Escherichia coli, UniProt P28307)
T1 construct: made in house; host or cells: E. coli NEB 3016 slyD::kan, pET11d
Experiment: In vitro ThioflavinT assay of CsgA aggregation (CsgA ThT Assay)
Assay type: biochemical
Conditions: 1005 minutes; for remaining activity at 25 µM: compound 25 μM; for remaining activity at 100 µM: compound 100 μM
How it was run: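 Purified C-terminal His-tagged CsgA, monomerised by desalting and 30-kDa filtration, at 2-20 μM with 20-40 μM ThT in 50 mM potassium phosphate pH 7.3, 1% DMSO, compounds 3.125-200 uM; room temperature, fluorescence (ex 438/em 495 nm) read every 15 min. Background-subtracted signal expressed as percent inhibition versus vehicle at 6-6.5 or 8-9 h, or as percent control AUC.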

[1] = read-out: CsgA ThT Assay (10 μM CsgA) % Control AUC at 1005 minutes, 25 μM (activity range), CsgA 10 μM, black plates, class symbol
[2] = read-out: CsgA ThT Assay (10 μM CsgA) % Control AUC at 1005 minutes, 25 μM, mean AUC as % of DMSO control, CsgA 10 μM, black plates
[3] = read-out: CsgA ThT Assay (10 μM CsgA) % Control AUC at 1005 minutes, 100 μM (activity range), CsgA 10 μM, black plates, class symbol
[4] = read-out: CsgA ThT Assay (10 μM CsgA) % Control AUC at 1005 minutes, 100 μM, mean AUC as % of DMSO control, CsgA 10 μM, black plates

T1 sequence (P28307 23-151): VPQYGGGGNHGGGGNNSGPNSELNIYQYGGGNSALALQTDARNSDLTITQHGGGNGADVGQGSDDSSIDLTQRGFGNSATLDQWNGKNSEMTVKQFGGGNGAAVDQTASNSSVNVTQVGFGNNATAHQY

SMILES | remaining activity at 25 µM [1] [%] | remaining activity at 25 µM [2] [%] | remaining activity at 100 µM [3] [%] | remaining activity at 100 µM [4] [%]
O=C(O)C1CN(CCCCO)S(=O)(=O)c2c(-c3cccc(C(F)(F)F)c3)c(Cc3cccc4ccccc34)c(NC3CCCC3)c(=O)n21 (stereo not shown) [Compound 121, 7-(cyclopentylamino)-2-(4-hydroxybutyl)-8-(naphthalen-1-ylmethyl)-6-oxo-9-(3-(trifluoromethyl)phenyl)-3,4-dihydro-2H,6H-pyrido[1,2-e][1,2,5]thiadiazine-4-carboxylic acid 1,1-dioxide] | 31 to 60 | 32 | 11 to 31 | 15
CN(C)CCN1CC(C(=O)O)n2c(c(-c3cccc(C(F)(F)F)c3)c(Cc3cccc4ccccc34)cc2=O)S1(=O)=O (stereo not shown) [Compound 017, 2-(2-(dimethylamino)ethyl)-8-(naphthalen-1-ylmethyl)-6-oxo-9-(3-(trifluoromethyl)phenyl)-3,4-dihydro-2H,6H-pyrido[1,2-e][1,2,5]thiadiazine-4-carboxylic acid 1,1-dioxide] | > 60 | 95 | > 60 | 70
CCCN1CC(C(=O)O)n2c(c(-c3cccc(C(F)(F)F)c3)c(Cc3cccc4ccccc34)cc2=O)S1(=O)=O (racemic) [Compound 016, 8-(naphthalen-1-ylmethyl)-6-oxo-2-propyl-9-(3-(trifluoromethyl)phenyl)-3,4-dihydro-2H,6H-pyrido[1,2-e][1,2,5]thiadiazine-4-carboxylic acid 1,1-dioxide] | 31 to 60 | 48 | 31 to 60 | 33
CN1CC(C(=O)O)n2c(c(-c3cccc(C(F)(F)F)c3)c(Cc3cccc4ccccc34)c(C(N)=O)c2=O)S1(=O)=O (stereo not shown) [Compound 109, 7-carbamoyl-2-methyl-8-(naphthalen-1-ylmethyl)-6-oxo-9-(3-(trifluoromethyl)phenyl)-3,4-dihydro-2H,6H-pyrido[1,2-e][1,2,5]thiadiazine-4-carboxylic acid 1,1-dioxide] | 31 to 60 | 55 | 11 to 31 | 22
CN1CC(C(N)=O)n2c(c(-c3cccc(C(F)(F)F)c3)c(Cc3cccc4ccccc34)cc2=O)S1(=O)=O (stereo not shown) [Compound 030, 2-methyl-8-(naphthalen-1-ylmethyl)-6-oxo-9-(3-(trifluoromethyl)phenyl)-3,4-dihydro-2H,6H-pyrido[1,2-e][1,2,5]thiadiazine-4-carboxamide 1,1-dioxide] | > 60 | 82 |  | 
CCN1CC(C(=O)O)n2c(c(-c3cccc(C(F)(F)F)c3)c(Cc3cccc4ccccc34)cc2=O)S1(=O)=O (single isomer, unassigned) [Compound 015a, 2-ethyl-8-(naphthalen-1-ylmethyl)-6-oxo-9-(3-(trifluoromethyl)phenyl)-3,4-dihydro-2H,6H-pyrido[1,2-e][1,2,5]thiadiazine-4-carboxylic acid 1,1-dioxide] | 11 to 31 | 25 | 11 to 31 | 17
C=CCCN1CC(C(=O)O)n2c(c(-c3cccc(C(F)(F)F)c3)c(Cc3cccc4ccccc34)cc2=O)S1(=O)=O (stereo not shown) [Compound 024, 2-(but-3-en-1-yl)-8-(naphthalen-1-ylmethyl)-6-oxo-9-(3-(trifluoromethyl)phenyl)-3,4-dihydro-2H,6H-pyrido[1,2-e][1,2,5]thiadiazine-4-carboxylic acid 1,1-dioxide] | 31 to 60 | 35 | 31 to 60 | 39
O=C(O)C1CN(CCCO)S(=O)(=O)c2c(-c3cccc(C(F)(F)F)c3)c(Cc3cccc4ccccc34)c(NC3CCCC3)c(=O)n21 (stereo not shown) [Compound 120, 7-(cyclopentylamino)-2-(3-hydroxypropyl)-8-(naphthalen-1-ylmethyl)-6-oxo-9-(3-(trifluoromethyl)phenyl)-3,4-dihydro-2H,6H-pyrido[1,2-e][1,2,5]thiadiazine-4-carboxylic acid 1,1-dioxide] | 11 to 31 | 28 | 11 to 31 | 12
O=C(O)C1CSc2c(-c3cccc(C(F)(F)F)c3)c(Cc3cccc4ccccc34)cc(=O)n21 (racemic) [Compound 011, 7-(naphthalen-1-ylmethyl)-5-oxo-8-(3-(trifluoromethyl)phenyl)-2,3-dihydro-5H-thiazolo[3,2-a]pyridine-3-carboxylic acid] | > 60 | 63 | > 60 | 62
O=C(O)[C@H]1CS(=O)(=O)c2c(-c3cccc(C(F)(F)F)c3)c(Cc3cccc4ccccc34)cc(=O)n21 (single isomer, unassigned) [Compound 010b, 7-(naphthalen-1-ylmethyl)-5-oxo-8-(3-(trifluoromethyl)phenyl)-2,3-dihydro-5H-thiazolo[3,2-a]pyridine-3-carboxylic acid 1,1-dioxide] | > 60 | 85 | 31 to 60 | 45
CCc1c(Cc2cccc3ccccc23)c(-c2cccc(C(F)(F)F)c2)c2n(c1=O)C(C(=O)O)CN(C1CCCCC1)S2(=O)=O (stereo not shown) [Compound 116, 2-cyclohexyl-7-ethyl-8-(naphthalen-1-ylmethyl)-6-oxo-9-(3-(trifluoromethyl)phenyl)-3,4-dihydro-2H,6H-pyrido[1,2-e][1,2,5]thiadiazine-4-carboxylic acid 1,1-dioxide] | 11 to 31 | 30 | 31 to 60 | 38
Nc1c(Cc2cccc3ccccc23)c(-c2cccc(C(F)(F)F)c2)c2n(c1=O)C(C(=O)O)CS2(=O)=O (stereo not shown) [Compound 023, 6-amino-7-(naphthalen-1-ylmethyl)-5-oxo-8-(3-(trifluoromethyl)phenyl)-2,3-dihydro-5H-thiazolo[3,2-a]pyridine-3-carboxylic acid 1,1-dioxide] | > 60 | 73 | 31 to 60 | 34
O=C(O)CN1CC(C(=O)O)n2c(c(-c3cccc(C(F)(F)F)c3)c(Cc3cccc4ccccc34)cc2=O)S1(=O)=O (stereo not shown) [Compound 018, 2-(carboxymethyl)-8-(naphthalen-1-ylmethyl)-6-oxo-9-(3-(trifluoromethyl)phenyl)-3,4-dihydro-2H,6H-pyrido[1,2-e][1,2,5]thiadiazine-4-carboxylic acid 1,1-dioxide] | > 60 | 95 | 31 to 60 | 60
CC(C)N1CC(C(=O)O)n2c(c(-c3cccc(C(F)(F)F)c3)c(Cc3cccc4ccccc34)c(NC3CCCC3)c2=O)S1(=O)=O (stereo not shown) [Compound 123, 7-(cyclopentylamino)-2-isopropyl-8-(naphthalen-1-ylmethyl)-6-oxo-9-(3-(trifluoromethyl)phenyl)-3,4-dihydro-2H,6H-pyrido[1,2-e][1,2,5]thiadiazine-4-carboxylic acid 1,1-dioxide] | 11 to 31 | 26 | 11 to 31 | 25
CCCN1CC(C(=O)O)n2c(c(-c3cccc(C(F)(F)F)c3)c(Cc3cccc4ccccc34)c(NC3CCOCC3)c2=O)S1(=O)=O (stereo not shown) [Compound 127, 8-(naphthalen-1-ylmethyl)-6-oxo-2-propyl-7-((tetrahydro-2H-pyran-4-yl)amino)-9-(3-(trifluoromethyl)phenyl)-3,4-dihydro-2H,6H-pyrido[1,2-e][1,2,5] thiadiazine-4-carboxylic acid 1,1-dioxide] | 11 to 31 | 26 | < 10 | 7
O=C(O)C1CSc2c(-c3cccc(C(F)(F)F)c3)c(Cc3cccc4ccccc34)nc(=O)n21 (stereo not shown) [Compound 022, 7-(naphthalen-1-ylmethyl)-5-oxo-8-(3-(trifluoromethyl)phenyl)-2,3-dihydro-5H-thiazolo[3,2-c]pyrimidine-3-carboxylic acid] | > 60 | 70 | 11 to 31 | 23
CN(C)Cc1c(Cc2cccc3ccccc23)c(-c2cccc(C(F)(F)F)c2)c2n(c1=O)C(C(=O)O)CS2 (stereo not shown) [Compound 075, 6-((dimethylamino)methyl)-7-(naphthalen-1-ylmethyl)-5-oxo-8-(3-(trifluoromethyl)phenyl)-2,3-dihydro-5H-thiazolo[3,2-a]pyridine-3-carboxylic acid] | > 60 | 118 | > 60 | 117
CN1CC(C(=O)O)n2c(c(-c3cccc(C(F)(F)F)c3)c(Cc3cccc4ccccc34)c(N)c2=O)S1(=O)=O (stereo not shown) [Compound 074, 7-amino-2-methyl-8-(naphthalen-1-ylmethyl)-6-oxo-9-(3-(trifluoromethyl)phenyl)-3,4-dihydro-2H,6H-pyrido[1,2-e][1,2,5]thiadiazine-4-carboxylic acid 1,1-dioxide] | 11 to 31 | 28 | 11 to 31 | 24
